Target: T1, Interleukin-1 receptor-associated kinase 4 (Homo sapiens, UniProt Q9NWZ3)
T1 sequence (Q9NWZ3 whole entry): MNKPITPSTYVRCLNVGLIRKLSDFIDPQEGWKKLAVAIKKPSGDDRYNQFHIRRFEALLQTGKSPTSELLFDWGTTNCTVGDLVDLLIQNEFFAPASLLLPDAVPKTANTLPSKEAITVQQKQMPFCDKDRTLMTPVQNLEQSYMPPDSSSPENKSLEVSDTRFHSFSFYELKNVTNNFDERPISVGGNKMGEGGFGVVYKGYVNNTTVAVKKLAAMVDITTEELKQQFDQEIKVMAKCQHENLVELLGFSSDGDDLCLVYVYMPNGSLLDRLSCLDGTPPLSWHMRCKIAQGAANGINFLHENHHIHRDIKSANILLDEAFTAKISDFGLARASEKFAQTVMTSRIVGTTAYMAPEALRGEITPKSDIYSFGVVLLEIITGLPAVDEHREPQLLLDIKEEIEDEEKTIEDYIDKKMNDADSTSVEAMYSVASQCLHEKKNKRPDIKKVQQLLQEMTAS
Experiment: 1RAK4 Kinase Activity Assay
Experimental: Then 2.5 nM 1RAK4 kinase (Carna), 1 μM biotinylated polypeptide substrate (Cisbio) and 7 μM adenosine triphosphate (Sigma-Aldrich) were sequentially added, and the mixtures were incubated at 37° C. for 120 min. Subsequently, an anti-phosphoserine/threonine antibody (Cisbio) conjugated with a europium element compound and conjugated modified XL665 streptavidin (Cisbio) were added to the reaction systems to stop the reactions. After 1 h of incubation at room temperature, the fluorescence intensity of each well was measured at the excitation wavelength of 337 nm and the emission wavelengths of 620 nm and 665 nm with a microplate reader EnVision (PerkinElmer) in the HTRF mode, and Ratio values were calculated using the formula Ratio=(665 nm/620 nm)×[…]. The inhibition rate of the compound at each concentration was calculated by comparing the fluorescence intensity ratio with that of the control group.

Row | Compound | IC50 [nM]
1 | COc1ccc(C(=O)N2CCC3(CCC(N(C)C[C@H]4CC[C@H](n5cc(NC(=O)c6cnn7ccc(N8CCOCC8)nc67)c(C(F)F)n5)CC4)CC3)CC2)cc1N1CCC(=O)NC1=O [US20240368194, Example 59] | 8.71
2 | CN(CCC1CCN(C(=O)c2ccc(Cl)c(N3CCC(=O)NC3=O)c2)CC1)C[C@]1(O)CC[C@@H](n2cc(NC(=O)c3cnn4ccc(N5C[C@H]6C[C@@H]5CO6)nc34)c(C(F)F)n2)CC1 [US20240368194, Example 65] | 52.1
3 | O=C1CCN(c2cc(C(=O)N3CCC4(CCN(C[C@H]5CC[C@H](n6cc(NC(=O)c7cnn8ccc(N9C[C@H]%10C[C@@H]9CO%10)nc78)c(Cl)n6)CC5)CC4)CC3)ccc2Cl)C(=O)N1 [US20240368194, Example 5] | 360
4 | CN(CCC1CCN(C(=O)c2ccc(Cl)c(N3CCC(=O)NC3=O)c2)CC1)C[C@H]1CC[C@H](n2cc(NC(=O)c3cnn4ccc(N5C[C@H]6C[C@@H]5CO6)nc34)c(C(F)F)n2)CC1 [US20240368194, Example 11] | 18.5
5 | CN(CC[C@H]1CC[C@H](n2cc(NC(=O)c3cnn4ccc(N5C[C@H]6C[C@@H]5CO6)nc34)c(C(F)F)n2)CC1)CC1CCN(C(=O)c2ccc(Cl)c(N3CCC(=O)NC3=O)c2)CC1 [US20240368194, Example 46] | 278

The remaining compounds from weak to strong by IC50, led by results:

Row | IC50 [nM] | Compound
6 | 313 | Cc1nn([C@H]2CC[C@H](CN3CCC4(CC3)CCN(C(=O)c3ccc(Cl)c(N5CCC(=O)NC5=O)c3)CC4)CC2)cc1NC(=O)c1cnn2ccc(N3C[C@H]4C[C@@H]3CO4)nc12 [US20240368194, Example 7]
7 | 25.5 | CN1CCN(c2ccn3ncc(C(=O)Nc4cn([C@H]5CC[C@H](CN(C)CCC6CCN(C(=O)c7ccc(F)c(N8CCC(=O)NC8=O)c7)CC6)CC5)nc4C(F)F)c3n2)CC1 [US20240368194, Example 41]
8 | 23.9 | CN(CCC1CCN(C(=O)c2ccc(OC(F)(F)F)c(N3CCC(=O)NC3=O)c2)CC1)C[C@H]1CC[C@H](n2cc(NC(=O)c3cnn4ccc(N5C[C@H]6C[C@@H]5CO6)nc34)c(C(F)F)n2)CC1 [US20240368194, Example 33]
9 | 20 | O=C1CCN(c2cc(C#CCOC3CCN(C[C@H]4CC[C@H](n5cc(NC(=O)c6cnn7ccc(N8CCOCC8)nc67)c(C(F)F)n5)CC4)CC3)ccc2Cl)C(=O)N1 [US20240368194, Example 38]
10 | 14.3 | O=C1CCC(c2ccc(C(=O)N3CCC4(CCC(CN5CCC(n6cc(NC(=O)c7cnn8ccc(N9CCOCC9)nc78)c(C(F)F)n6)CC5)CC4)CC3)cc2)C(=O)N1 (stereo not given) [US20240368194, Example 26]
